Measurements: patent publication US10442791B2, “DNA-PK inhibitors” (Vertex Pharmaceuticals Incorporated, priority 2012, dated 2019)

These compounds were tested against DNA-PK (Homo sapiens, UniProt P78527) (assay: DNA-PK inhibition assay (radiometric 33P-ATP kinase assay)). Conditions: 100 μM ATP; competitive tight-binding fit.
Type: biochemical
Protocol: Compounds were screened for their ability to inhibit DNA-PK kinase using a standard radiometric assay. Briefly, in this kinase assay the transfer of the terminal ^33P-phosphate in ^33P-ATP to a peptide substrate is interrogated. The assay was carried out in 384-well plates to a final volume of 50 μL per well containing approximately 6 nM DNA-PK, 50 mM HEPES (pH 7.5), 10 mM MgCl2, 25 mM NaCl, 0.01% BSA, 1 mM DTT, 10 μg/mL sheared double-stranded DNA (obtained from Sigma), 0.8 mg/mL DNA-PK peptide ([…] obtained from American Peptide), and 100 μM ATP. Accordingly, compounds of the invention were dissolved in DMSO to make 10 mM initial stock solutions. Serial dilutions in DMSO were then made to obtain the final solutions for the assay. A 0.75 μL aliquot of DMSO or inhibitor in DMSO was added to each well, followed by the addition of ATP substrate solution containing ^33P-ATP (obtained from Perkin Elmer). The reaction was started by the addition of DNA-PK, peptide and ds-DNA. After 45 min. the reaction was quenched with 25 μL of 5% phosphoric acid. The reaction mixture was transferred to MultiScreen HTS 384-well PH plates (obtained from Millipore), allowed to bind for one hour, and washed three times with 1% phosphoric acid. Following the addition of 50 μL of Ultima Gold™ high efficiency scintillant (obtained from Perkin Elmer), the samples were counted in a Packard TopCount NXT Microplate Scintillation and Luminescence Counter (Packard BioScience). The Ki values were calculated using Microsoft Excel Solver macros to fit the data to the kinetic model for competitive tight-binding inhibition.

Ki, < 30 nM:
COc1ccccc1[C@H](C)CNc1cc(-c2ccc(NCC(O)CO)nc2)ncn1 (single isomer, unassigned) [Compound 200]
COc1ccccc1[C@H](C)CNc1cc(-c2ccnc(N[C@@H](C)CO)c2)ncn1 (single isomer, unassigned) [Compound 213]
CNC(=O)c1ccc([C@H](C)CNc2cc(-c3ccc(NC(C)COC)nc3)ncn2)c(OC)c1 (single isomer, unassigned) [Compound 394]
Cc1ccc(-c2cc(NC[C@@H](C)c3ccnc4c3OCCO4)ncn2)cn1 (single isomer, unassigned) [Compound 443]
CNC(=O)c1ccnc2c([C@H](C)CNc3cc(-c4cnc5c(c4)C(C)OC5)ncn3)cccc12 (single isomer, unassigned) [Compound 1012]
CNC(=O)c1ccnc2c([C@H](C)CNc3cc(-c4ccnc(C(C)OC)c4)ncn3)cccc12 (single isomer, unassigned) [Compound 1039]
COc1ccc(CCNc2cc(-c3ccc4ncccc4c3)ncn2)c(OC)c1 [Compound 28]
COc1ccccc1[C@H](C)CNc1cc(-c2cnc3[nH]ncc3c2)ncn1 [Compound 150]
Cc1ccc(-c2cc(NCC(C)c3cncc4c3OCC4)ncn2)cn1 (centres unmarked) [Compound 418]
CNC(=O)c1ccnc2c([C@H](C)CNc3cc(-c4cnc(OC5CCN(C(=O)OC(C)(C)C)C5)nc4)ncn3)cccc12 (some centres unmarked) [Compound 746]
CNC(=O)c1ccnc2c([C@H](C)CNc3cc(-c4cnc(OCC(F)(F)F)nc4)ncn3)cccc12 [Compound 769]
CNC(=O)c1ccnc2c([C@H](C)CNc3cc(-c4cnc(N5CCN(CC(F)(F)F)CC5)nc4)ncn3)cccc12 [Compound 781]
CNC(=O)c1ccnc2c([C@H](C)CNc3cc(-c4cc(C)nc(C)c4)ncn3)cccc12 [Compound 820]
CNC(=O)c1c(F)cnc2c([C@H](C)CNc3cc(-c4cnc(C(C)C)nc4)ncn3)cccc12 [Compound 859]
CNC(=O)c1ccnc2c([C@H](C)CNc3cc(-c4cnc(OC)c(CO)c4)ncn3)ccc(F)c12 [Compound 883]
CCN(CC)c1cc(-c2cc(NC[C@@H](C)c3cccc4c(C(=O)NC)ccnc34)ncn2)ccn1 [Compound 892]
CNC(=O)c1cc(C(F)(F)F)nc2c([C@H](C)CNc3cc(-c4ccc(C)nc4)ncn3)cccc12 [Compound 985]
CNC(=O)c1ccnc2c([C@H](C)CNc3cc(-c4cnc5c(c4)COC5(C)C)ncn3)cccc12 [Compound 986]
CNC(=O)c1c(F)cnc2c([C@H](C)CNc3cc(-c4cnc5c(c4)COC5(C)C)ncn3)cccc12 [Compound 987]
CNC(=O)c1ccnc2c([C@H](C)CNc3cc(-c4ccc(CC5CCN(C)CC5)nc4)ncn3)cccc12 [Compound 989]
CNC(=O)c1c(F)cnc2c([C@H](C)CNc3cc(-c4ccc(CC5CCN(C)CC5)nc4)ncn3)cccc12 [Compound 991]
CNC(=O)c1ccnc2c([C@H](C)CNc3cc(-c4ccc(CC5CCN(C)CC5)nc4)ncn3)ccc(F)c12 [Compound 992]
Cc1ccc(-c2cc(NC[C@@H](C)c3cccc4c3ncc3[nH][nH]c(=O)c34)ncn2)cn1 [Compound 993]
Cc1ccc(-c2cc(NC[C@@H](C)c3cccc4c3ncc3[nH]n(C)c(=O)c34)ncn2)cn1 [Compound 994]
Cc1ccc(-c2cc(NC[C@@H](C)c3cccc4c3ncc3c4c(=O)[nH]n3C)ncn2)cn1 [Compound 995]
CNC(=O)c1ccnc2c([C@H](C)CNc3cc(-c4cnc(OC(C)(C)C)nc4)ncn3)cccc12 [Compound 996]
CNC(=O)c1c(F)cnc2c([C@H](C)CNc3cc(-c4cnc(OC(C)(C)C)nc4)ncn3)cccc12 [Compound 997]
CNC(=O)c1ccnc2c([C@H](C)CNc3cc(-c4cnc(OC(C)(C)C)nc4)ncn3)ccc(F)c12 [Compound 998]
CNC(=O)c1c(F)cnc2c([C@H](C)CNc3cc(-c4cnc(COC)nc4)ncn3)cccc12 [Compound 999]
CNC(=O)c1ccnc2c([C@H](C)CNc3cc(-c4cnc(COC)nc4)ncn3)ccc(F)c12 [Compound 1000]
CNC(=O)c1ccnc2c([C@H](C)CNc3cc(-c4cnc(CC5CCN(C)CC5)nc4)ncn3)cccc12 [Compound 1001]
CNC(=O)c1c(F)cnc2c([C@H](C)CNc3cc(-c4cnc(CC5CCN(C)CC5)nc4)ncn3)cccc12 [Compound 1002]
[2H]C([2H])([2H])C([2H])([2H])c1ncc(-c2cc(NC[C@@H](C)c3cccc4c(C(=O)NC)c(F)cnc34)ncn2)cn1 [Compound 1004]
CNC(=O)c1ncnc2c([C@H](C)CNc3cc(-c4ccc(OC)nc4)ncn3)cccc12 [Compound 1005]
CNC(=O)c1ncnc2c([C@H](C)CNc3cc(-c4ccc(F)nc4)ncn3)cccc12 [Compound 1006]
CNC(=O)c1ccnc2c([C@H](C)CNc3cc(-c4ccc(CC5CCN(C(C)=O)CC5)nc4)ncn3)cccc12 [Compound 1007]
CNC(=O)c1c(F)cnc2c([C@H](C)CNc3cc(-c4ccc(CC5CCN(C(C)=O)CC5)nc4)ncn3)cccc12 [Compound 1008]
CNC(=O)c1ncnc2c([C@H](C)CNc3cc(-c4cnc(OC)nc4)ncn3)cccc12 [Compound 1009]
CNC(=O)c1ncnc2c([C@H](C)CNc3cc(-c4ccc(C#N)cc4)ncn3)cccc12 [Compound 1010]
CCOc1ncc(-c2cc(NC[C@@H](C)c3cccc4c(C(=O)NC)ncnc34)ncn2)cn1 [Compound 1011]
CNC(=O)c1ccnc2c([C@H](C)CNc3cc(-c4cnc(COC(C)C)nc4)ncn3)cccc12 [Compound 1014]
CNC(=O)c1c(F)cnc2c([C@H](C)CNc3cc(-c4cnc(COC(C)C)nc4)ncn3)cccc12 [Compound 1015]
CNC(=O)c1ncnc2c([C@H](C)CNc3cc(-c4ccc(C(=O)NCCC#N)nc4)ncn3)cccc12 [Compound 1016]
CNC(=O)c1ncnc2c([C@H](C)CNc3cc(-c4ccc(C(=O)NCCC#N)cc4)ncn3)cccc12 [Compound 1017]
CNC(=O)c1ccnc2c([C@H](C)CNc3cc(-c4ccc(CC5CCN(C(C)=O)CC5)nc4)ncn3)ccc(F)c12 [Compound 1018]
CNC(=O)c1ccnc2c([C@H](C)CNc3cc(-c4ccc(CC5CCN(CC(F)F)CC5)nc4)ncn3)cccc12 [Compound 1019]
CNC(=O)c1ccnc2c([C@H](C)CNc3cc(-c4ccc(CC5CCN(CC(F)F)CC5)nc4)ncn3)ccc(F)c12 [Compound 1020]
CNC(=O)c1c(F)cnc2c([C@H](C)CNc3cc(-c4ccc(CC5CCN(CC(F)(F)F)CC5)nc4)ncn3)cccc12 [Compound 1021]
CNC(=O)c1ccnc2c([C@H](C)CNc3cc(-c4ccc(CC5CCN(CC(F)(F)F)CC5)nc4)ncn3)ccc(F)c12 [Compound 1022]
CNC(=O)c1ccnc2c([C@H](C)CNc3cc(-c4ccc(CC5CCN(CC(F)(F)F)CC5)nc4)ncn3)cccc12 [Compound 1023]
[2H]c1nc(C)nc([2H])c1-c1cc(NC[C@@H](C)c2cccc3c(C(N)=O)ccnc23)ncn1 [Compound 1027]
CNC(=O)c1ccnc2c([C@H](C)CNc3cc(-c4cnc(NC5CC5)nc4)ncn3)ccc(F)c12 [Compound 1028]
CNC(=O)c1ccnc2c([C@H](C)CNc3cc(-c4cnc(NC5CC5)nc4)ncn3)cccc12 [Compound 1029]
CCOc1ncc(-c2cc(NC[C@@H](C)c3cccc4c(C(=O)NC)c(F)cnc34)ncn2)cn1 [Compound 1030]
CNC(=O)c1ccnc2c([C@H](C)CNc3cc(-c4cnc(OC)nc4)ncn3)ccc(F)c12 [Compound 1031]
CNC(=O)c1c(F)cnc2c([C@H](C)CNc3cc(-c4cnc(NC5CC5)nc4)ncn3)cccc12 [Compound 1032]
CNC(=O)c1c(F)cnc2c([C@H](C)CNc3cc(-c4cnc(NCC(F)(F)F)nc4)ncn3)cccc12 [Compound 1033]
CNC(=O)c1ccnc2c([C@H](C)CNc3cc(-c4cnc(NC5CCN(CC(F)F)CC5)nc4)ncn3)cccc12 [Compound 1034]
CNC(=O)c1c(F)cnc2c([C@H](C)CNc3cc(-c4cnc(OC)nc4)ncn3)cccc12 [Compound 1035]
CNC(=O)c1c(F)cnc2c([C@H](C)CNc3cc(-c4cnc(NC5CCN(CC(F)(F)F)CC5)nc4)ncn3)cccc12 [Compound 1036]
CNC(=O)c1c(F)cnc2c([C@H](C)CNc3cc(-c4cnc(NC5CCN(CC(F)F)CC5)nc4)ncn3)cccc12 [Compound 1037]
CNC(=O)c1ccnc2c([C@H](C)CNc3cc(-c4cnc(NC5CCN(CC(F)F)CC5)nc4)ncn3)ccc(F)c12 [Compound 1038]
